We go through 17 molecules from US20090253669A1, “Substituted Sulfonamide Compounds” (GRUENENTHAL GmbH, priority 2008, published 2009).

For orientation: inhibition means the relative decrease from the control value, in per cent.

The target in test [1] is T1, B1R receptor of the rat (rB1R) (Rattus norvegicus, UniProt P97583).
T1 construct: host or cells: CHO K1 cells
T1 sequence (P97583 1-337): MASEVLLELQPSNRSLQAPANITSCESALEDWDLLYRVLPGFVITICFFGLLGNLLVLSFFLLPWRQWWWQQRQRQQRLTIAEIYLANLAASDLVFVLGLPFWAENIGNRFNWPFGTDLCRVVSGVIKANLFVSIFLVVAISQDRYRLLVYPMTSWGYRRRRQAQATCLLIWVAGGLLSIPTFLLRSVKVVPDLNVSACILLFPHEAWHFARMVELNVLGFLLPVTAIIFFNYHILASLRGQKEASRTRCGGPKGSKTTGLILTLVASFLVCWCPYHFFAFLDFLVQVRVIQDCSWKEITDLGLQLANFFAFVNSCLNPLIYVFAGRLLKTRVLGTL
The experiment in a line: FLIPR Ca2+ assay on rB1R-transfected CHO K1 cells, antagonistic action. The class given is cell-based. The settings on record: CHO-K1, 10 μM test substance; agonist Des-Arg9-bradykinin 100 nM; % of maximum achievable inhibition; read-out: rB1R [10 μM] % inhibition.

Test [2] has as its target T2, human B1R receptor (hB1R) (Homo sapiens, UniProt P46663).
T2 construct: host or cells: CHO K1 cells
T2 sequence (P46663 1-353): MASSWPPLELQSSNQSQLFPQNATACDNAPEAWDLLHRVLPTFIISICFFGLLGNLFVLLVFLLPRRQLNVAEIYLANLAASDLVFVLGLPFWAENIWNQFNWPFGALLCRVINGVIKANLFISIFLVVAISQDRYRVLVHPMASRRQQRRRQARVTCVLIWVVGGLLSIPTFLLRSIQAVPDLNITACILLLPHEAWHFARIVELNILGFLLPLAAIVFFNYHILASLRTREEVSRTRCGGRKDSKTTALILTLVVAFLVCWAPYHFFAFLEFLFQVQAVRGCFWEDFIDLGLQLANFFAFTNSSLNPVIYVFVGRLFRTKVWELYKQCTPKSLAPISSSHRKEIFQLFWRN
Nature of the test: FLIPR Ca2+ assay on hB1R-transfected CHO K1 cells, antagonistic action. The class given is cell-based. The settings on record: CHO-K1, 10 μM test substance; agonist Lys-Des-Arg9-bradykinin 0.5 nM; % of maximum achievable inhibition; read-out: hB1R [10 μM] % inhibition.

In the case of `COc1cc(C)c(S(=O)(=O)N2CCCCC2COCC(=O)N2CCC(CCc3ccccc3)(N(C)C)CC2)c(C)c1` (stereo not shown) [Compound 50, 1-(4-(dimethylamino)-4-phenethylpiperidin-1-yl)-2-((1-(4-methoxy-2,6-dimethylphenylsulfonyl)piperidin-2-yl)methoxy)ethanone], the inhibition at 10 µM in test [1] came to 100%; in test [2] it was 102%.
For `COc1cc(C)c(S(=O)(=O)N2CCCCC2COCC(=O)N(C)CC2CCC(CCc3ccccc3)(N3CCCC3)CC2)c(C)c1` (stereo not shown) [Compound 51, 2-((1-(4-methoxy-2,6-dimethylphenylsulfonyl)piperidin-2-yl)methoxy)-N-methyl-N-((4-phenethyl-4-(pyrrolidin-1-yl)cyclohexyl)methyl)acetamide] the same measures were 100% and 102%.
In the case of `COc1cc(C)c(S(=O)(=O)N(C)CCOCC(=O)N(C)CCC2CCC(CCc3ccccc3)(N(C)C)CC2)c(C)c1` (stereo not shown) [Compound 52, N-(2-(4-(dimethylamino)-4-phenethylcyclohexyl)ethyl)-2-(2-(4-methoxy-N,2,6-trimethylphenylsulfonamido)ethoxy)-N-methylacetamide], the inhibition at 10 µM worked out at 100% in test [1] and 104% in test [2].
Take `COc1cc(C)c(S(=O)(=O)N(C)CCOCC(=O)N(C)CCC2CCC(Cc3ccccc3)(N(C)C)CC2)c(C)c1` (stereo not shown) [Compound 53, N-(2-(4-benzyl-4-(dimethylamino)cyclohexyl)ethyl)-2-(2-(4-methoxy-N,2,6-trimethylphenylsulfonamido)ethoxy)-N-methylacetamide]: the inhibition at 10 µM in test [1] turned out to be 100%; in test [2], 103%.
On to `COc1cc(C)c(S(=O)(=O)N(C)CCOCC(=O)N2CCC(c3ccccc3)(N(C)C)CC2)c(C)c1` [Compound 54, N-(2-(2-(4-(dimethylamino)-4-phenylpiperidin-1-yl)-2-oxoethoxy)ethyl)-4-methoxy-N,2,6-trimethylbenzenesulfonamide], for which the inhibition at 10 µM stood at 100% in test [1] and 103% in test [2].
Regarding `CN1CCN(C2(CCc3ccccc3)CCN(C(=O)CC(NS(=O)(=O)c3ccc4ccccc4c3)c3ccccc3)CC2)CC1` (stereo not shown) [Compound 55, N-(3-(4-(4-methylpiperazin-1-yl)-4-phenethylpiperidin-1-yl)-3-oxo-1-phenylpropyl)naphthalene-2-sulfonamide], the results for the inhibition at 10 µM in test [1] and in test [2] were 100% and 99%, respectively.
Take `CN(CCC1CCC(Cc2ccccc2)(N2CCCC2)CC1)C(=O)CC(NS(=O)(=O)c1ccc2ccccc2c1)c1ccccc1` (stereo not shown) [Compound 56, N-(2-(4-benzyl-4-(pyrrolidin-1-yl)cyclohexyl)ethyl)-N-methyl-3-(naphthalene-2-sulfonamido)-3-phenylpropanamide]: the inhibition at 10 µM in test [1] was found to be 100%; in test [2], 101%.
As for `COc1cc(C)c(S(=O)(=O)N2CCCCC2COCC(=O)N2CCC(Cc3ccccc3)(N3CCN(C)CC3)CC2)c(C)c1` (stereo not shown) [Compound 57, 1-(4-benzyl-4-(4-methylpiperazin-1-yl)piperidin-1-yl)-2-((1-(4-methoxy-2,6-dimethylphenylsulfonyl)piperidin-2-yl)methoxy)ethanone], the inhibition at 10 µM in test [1] and in test [2] was 100% in each case.
For the molecule `COc1cc(C)c(S(=O)(=O)N(C)CCOCC(=O)N(C)CCC2CCC(CCc3ccccc3)(N3CCCC3)CC2)c(C)c1` (stereo not shown) [Compound 58, 2-(2-(4-methoxy-N,2,6-trimethylphenylsulfonamido)ethoxy)-N-methyl-N-(2-(4-phenethyl-4-(pyrrolidin-1-yl)cyclohexyl)ethyl)acetamide], the inhibition at 10 µM in test [1] was 100%; in test [2], 103%.
Turning to `COc1cc(C)c(S(=O)(=O)N2CCCCC2COCC(=O)N(C)CCCC2CCC(CCc3ccccc3)(N3CCCC3)CC2)c(C)c1` (stereo not shown) [Compound 59, 2-((1-(4-methoxy-2,6-dimethylphenylsulfonyl)piperidin-2-yl)methoxy)-N-methyl-N-(3-(4-phenethyl-4-(pyrrolidin-1-yl)cyclohexyl)propyl)acetamide], the inhibition at 10 µM in test [1] turned out to be 100%; in test [2] it was 101%.
The like results for `COc1cc(C)c(S(=O)(=O)N2CCCCC2COCC(=O)N(C)CCC2CCC(c3ccccc3)(N3CCCC3)CC2)c(C)c1` (stereo not shown) [Compound 60, 2-((1-(4-methoxy-2,6-dimethylphenylsulfonyl)piperidin-2-yl)methoxy)-N-methyl-N-(2-(4-phenyl-4-(pyrrolidin-1-yl)cyclohexyl)ethyl)acetamide] were, in that order, 100% and 103%.
Take `CN(CCC1CCC(Cc2ccccc2)(N(C)C)CC1)C(=O)COCC1CCc2ccccc2N1S(=O)(=O)c1ccc(Cl)c(Cl)c1` (stereo not shown) [Compound 61, N-(2-(4-benzyl-4-(dimethylamino)cyclohexyl)ethyl)-2-((1-(3,4-dichlorophenylsulfonyl)-1,2,3,4-tetrahydroquinolin-2-yl)methoxy)-N-methylacetamide]: the inhibition at 10 µM in test [1] worked out at 100%; in test [2] it was 49%.
The like results for `COc1cc(C)c(S(=O)(=O)N2CCCCC2COCC(=O)N2CCC(c3ccccc3)(N3CCN(c4ccncc4)CC3)CC2)c(C)c1` (stereo not shown) [Compound 62, 2-((1-(4-methoxy-2,6-dimethylphenylsulfonyl)piperidin-2-yl)methoxy)-1-(4-phenyl-4-(4-(pyridin-4-yl)piperazin-1-yl)piperidin-1-yl)ethanone] were, in that order, 100% and 103%.
The like results for `COc1cc(C)c(S(=O)(=O)N(C)CCOCC(=O)N2CCC(Cc3ccccc3)(N(C)C)CC2)c(C)c1` [Compound 63, N-(2-(2-(4-benzyl-4-(dimethylamino)piperidin-1-yl)-2-oxoethoxy)ethyl)-4-methoxy-N,2,6-trimethylbenzenesulfonamide] were, in that order, 100% and 102%.
The like results for `CN1CCN(C2(c3ccccc3)CCN(C(=O)CC3CCCCN3S(=O)(=O)c3cccc(C(F)(F)F)c3)CC2)CC1` (stereo not shown) [Compound 64, 1-(4-(4-methylpiperazin-1-yl)-4-phenylpiperidin-1-yl)-2-(1-(3-(trifluoromethyl)phenylsulfonyl)piperidin-2-yl)ethanone] were, in that order, 100% and 84%.
As to `COc1cc(C)c(S(=O)(=O)N2CCCCC2COCC(=O)N2CCC(Cc3ccccc3)(N(C)C)CC2)c(C)c1` (stereo not shown) [Compound 65, 1-(4-benzyl-4-(dimethylamino)piperidin-1-yl)-2-((1-(4-methoxy-2,6-dimethylphenylsulfonyl)piperidin-2-yl)methoxy)ethanone], the inhibition at 10 µM in test [1] came out at 100%; in test [2] it was 104%.
The like results for `COc1cc(C)c(S(=O)(=O)N2CCCCC2COCC(=O)N(C)CC2CCC(c3ccccc3)(N3CCCC3)CC2)c(C)c1` (stereo not shown) [Compound 66, 2-((1-(4-methoxy-2,6-dimethylphenylsulfonyl)piperidin-2-yl)methoxy)-N-methyl-N-((4-phenyl-4-(pyrrolidin-1-yl)cyclohexyl)methyl)acetamide] were, in that order, 100% and 102%.
